Assay results from ChEMBL document CHEMBL1201862, “PubChem BioAssay data set” (2004).
Structures can show the parent of a compound that is named as a salt.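 Dose response: 5 concentrations. Exposure: 48 h. Format: 96-well plates. Endpoint: linear interpolation; highest concentration if not reached. GI50 is the concentration that inhibits growth by half.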 Active and inactive are the calls of the source. Rule as the data show it: active = GI50 up to about 1.1 µM and inactive = higher. Where a SMILES comes first, the peptide text is derived from it. Non-standard residues stand in square brackets, D forms with d. Residues, ends and D or L forms follow the SMILES beside them. ξ: configuration not given here. *: point of attachment. ξNMeF = CNC(Cc1ccccc1)C(=O)O; NMeV = CN[C@H](C(=O)O)C(C)C; Boc = CC(C)(C)OC(=O)*; OBn = c1ccc(CO*)cc1

Assays:
Assay in all cases: DTP human tumour cell line panel, 48 h
[1] = tested on: Hs-578T
[2] = tested on: MDA-N
[3] = tested on: T47D
[4] = tested on: DMS-114
[5] = tested on: HOP-18
[6] = tested on: KM-20L2
[7] = tested on: SNB-78
[8] = tested on: XF498

Structure (SMILES)	GI50 [1]	GI50 [2]	GI50 [3]	GI50 [4]	GI50 [5]	GI50 [6]	GI50 [7]	GI50 [8]
CCOC(=O)c1nnc2c(C(=O)OCC)c3ccccc3n2c1N	7.16 µM (inactive)	4.36 µM (inactive)	29.9 µM (inactive)	–	–	–	–	–
C=C1c2[nH]c3ccccc3c2C2C(CC)C1CCN2C (stereo unspecified)	40.9 µM (inactive)	72.8 µM (inactive)	> 100 µM (inactive)	–	–	–	–	–
Cc1cc(-c2nc3cc(F)ccc3s2)ccc1NC(=O)[C@@H](N)CCCCN	3.08 µM (inactive)	1.77 µM (inactive)	< 0.0138 µM (active)	–	–	–	–	–
CCSCCC(N)C(=O)O (stereo unspecified)	> 100 µM (inactive)	> 100 µM (inactive)	> 100 µM (inactive)	–	–	–	–	–
CCOc1ccc(/C=C2\N=C(c3ccccc3)OC2=O)cc1	> 100 µM (inactive)	–	–	–	–	–	–	–
O=C1c2c[nH]nc2C(c2ccccc2)N1c1ccccc1 (stereo unspecified)	> 10 µM (inactive)	> 10 µM (inactive)	> 10 µM (inactive)	–	–	–	–	–
O=C1CCCC(=O)N1n1c(Cc2ccccc2)n[nH]c1=O	> 100 µM (inactive)	> 100 µM (inactive)	> 100 µM (inactive)	–	–	–	–	–
COC(=O)C(N)CCCC(N)C(=O)NC(C)C(=O)NC(CCC(=O)NCCNCCNc1c2ccccc2nc2cccc([N+](=O)[O-])c12)C(N)=O (stereo unspecified)	17.9 µM (inactive)	14.7 µM (inactive)	5.06 µM (inactive)	–	–	–	–	–
COC(=O)[C@H](Cc1ccccc1)NC(=O)OCC1OC(n2cc(C)c(=O)[nH]c2=O)CC1N=[N+]=[N-] (stereo partly specified)	0.0617 µM (active)	> 100 µM (inactive)	> 100 µM (inactive)	–	–	–	–	–
C[C@]12CC[C@H]3[C@@H](CCC4=CC(=O)CC[C@@]43C)[C@@H]1CC[C@@H]2OC(=O)c1cccc2c(=O)c3ccccc3[nH]c12	12.1 µM (inactive)	42.1 µM (inactive)	57.3 µM (inactive)	–	–	–	–	–
OCCN(CCO)c1ccc2c(c1)Cc1ccccc1-2	37.1 µM (inactive)	50.6 µM (inactive)	13.5 µM (inactive)	–	–	–	–	–
Cn1c(-c2ccco2)ccc1-c1ccc(C=O)o1	–	35.7 µM (inactive)	38.1 µM (inactive)	–	–	–	–	–
COC(=O)CCC(=O)Nc1cc(Cl)ccc1Cl	–	–	–	> 100 µM (inactive)	> 100 µM (inactive)	> 100 µM (inactive)	> 100 µM (inactive)	> 100 µM (inactive)
CCCCN1C(=O)NC(Cc2ccccc2)C1=O (stereo unspecified)	–	–	–	> 100 µM (inactive)	> 100 µM (inactive)	> 100 µM (inactive)	> 100 µM (inactive)	> 100 µM (inactive)
CC1(C)CCCCCCC2CC2CCCCCC(C)(C)C1=O (stereo unspecified)	> 100 µM (inactive)	88.3 µM (inactive)	36.9 µM (inactive)	–	–	–	–	–
O=C1CNCCCN2CCN(CCCNCC(=O)Nc3ccc(cc3)S(=O)(=O)c3ccc(cc3)NC(=O)CNCCCN3CCN(CCCNCC(=O)Nc4ccc(cc4)S(=O)(=O)c4ccc(cc4)N1)CC3)CC2	> 45.4 µM (inactive)	19.3 µM (inactive)	27.9 µM (inactive)	–	–	–	–	–
C/C(Cl)=N/OC(=O)Nc1ccc(F)c([N+](=O)[O-])c1	0.457 µM (active)	16 µM (inactive)	–	–	–	–	–	–
C[C@]12CC[C@H](OC3CCCCO3)CC1=CC[C@@H]1C2CC[C@]2(C)/C(=N/O)CCC12 (stereo partly specified)	–	–	–	17.5 µM (inactive)	16 µM (inactive)	12.6 µM (inactive)	20.7 µM (inactive)	40.6 µM (inactive)
COc1cc2c(c(OC)c1OC)C(=O)[C@@H]1[C@H]2N1C(N)=O	96.2 µM (inactive)	88.5 µM (inactive)	> 100 µM (inactive)	–	–	–	–	–
OC12c3ccccc3C3CCC4(OCCO4)C3C1c1ccccc12 (stereo unspecified)	–	–	–	53.6 µM (inactive)	> 100 µM (inactive)	> 100 µM (inactive)	> 100 µM (inactive)	–
CC(=O)OC12c3ccccc3-c3ccccc3C1C(C(=O)O)C2(Cl)C(=O)O (stereo unspecified)	> 10 µM (inactive)	> 10 µM (inactive)	> 10 µM (inactive)	–	–	–	–	–
O=C1/C(=C/c2cccc(Br)c2)Cc2ccccc21	29.4 µM (inactive)	54 µM (inactive)	–	–	–	–	–	–
O=C(OCc1ccccc1[N+](=O)[O-])N1c2ccccc2[C@@]23O[C@]24CCC[C@H]3C#C/C=C\C#C[C@H]14	66.5 µM (inactive)	> 100 µM (inactive)	73.8 µM (inactive)	–	–	–	–	–
COC1OCC(O)C(NC(=O)N(C)N=O)C1O (stereo unspecified)	–	–	–	> 100 µM (inactive)	> 100 µM (inactive)	> 100 µM (inactive)	> 100 µM (inactive)	> 100 µM (inactive)
COc1cc(/C=C/C(=O)OCCc2ccccc2)ccc1O	25.6 µM (inactive)	19.1 µM (inactive)	13.5 µM (inactive)	–	–	–	–	–
CC(C)[C@@H](C(=O)N(C)[C@H](C(=O)N1CCC[C@H]1C(=O)OCc1ccccc1)C(C)C)N(C)C(=O)C(Cc1ccccc1)N(C)C(=O)[C@H](NC(=O)OC(C)(C)C)C(C)C (stereo partly specified) (Boc-[dV][ξNMeF][NMeV][NMeV]P-OBn)	–	–	–	20.6 µM (inactive)	> 72.6 µM (inactive)	> 31.6 µM (inactive)	–	13.4 µM (inactive)
NC(=O)C1CCCN1C(=O)C(N)Cc1ccccc1 (stereo not drawn) (H-Phe-Pro-NH2; configuration not given here)	–	> 100 µM (inactive)	> 100 µM (inactive)	–	–	–	–	–
COc1cc2c(cc1-c1coc3cc(O)ccc3c1=O)OCO2 [CUNEATIN]	22.2 µM (inactive)	48.9 µM (inactive)	29.6 µM (inactive)	–	–	–	–	–
Oc1ccc(C(O)C2CCCCN2)cc1O (stereo unspecified) [RIMITEROL HYDROBROMIDE]	> 100 µM (inactive)	> 100 µM (inactive)	23.8 µM (inactive)	–	–	–	–	–
